Assay results: ChEMBL document CHEMBL5674860, “Optimized Dual-Glo Assay to identify co-culture-induced drug vulnerabilities in 3D CRC models” (2024)
Square brackets hold non-standard residues; d marks the D form. Peptide text beside a SMILES is read from it. Arg(Me) = CNC(=N)NCCC[C@H](N)C(=O)O; d3Pal = N[C@H](Cc1cccnc1)C(=O)O; azaGly = NNC(=O)O

Experiments:
Type in all cases: functional, Homo sapiens
Set-up in all cases: dose or concentration left out as unconfirmed
[1] = tested on: Colon cancer organoid; test: Optimized Dual-Glo assay to identify co-culture induced drug vulnerabilities using donated chemical probes and chemogenomics kinase set in O20 CRC organoid and F20 CAF mono and co-culture. […] Cell viability is reported both mono and co-culture models.
[2] = tested on: Colon cancer organoid; test: Optimized Dual-Glo assay to identify co-culture induced drug vulnerabilities using donated chemical probes and chemogenomics kinase set in O06 CRC organoid and F06 CAF mono and co-culture. […] Cell viability is reported both mono and co-culture models.
[3] = tested on: Colon cancer organoid; test: Optimized Dual-Glo assay to identify co-culture induced drug vulnerabilities using donated chemical probes and chemogenomics kinase set in O14 CRC organoid and F14 CAF mono and co-culture. […] Cell viability is reported both mono and co-culture models.
[4] = Culture type Co-Culture, Transduced with Lucferase2-P2A-EGFP lentivirus
[5] = Culture type Co-Culture, Transduced with Renilla-dsRed lentivirus
[6] = Culture type Mono-Culture, Transduced with Lucferase2-P2A-EGFP lentivirus
[7] = Culture type Mono-Culture, Transduced with Renilla-dsRed lentivirus

Row | SMILES | Cell Viability [1, 4] | Cell Viability [1, 5] | Cell Viability [1, 6] | Cell Viability [1, 7] | Cell Viability [2, 4] | Cell Viability [2, 5] | Cell Viability [2, 6] | Cell Viability [2, 7] | Cell Viability [3, 4] | Cell Viability [3, 5] | Cell Viability [3, 6] | Cell Viability [3, 7]
1 | CNC(=O)Nc1ccc(-c2nc(N3CC4CCC(C3)O4)c3cnn(C4CCC5(CC4)OCCO5)c3n2)cc1 | 5.834% | 97.6391% | 5.978% | 53.3135% | 4.885% | 48.532% | 5.396% | 31.9288% | 9.5061% | 63.2179% | 14.6121% | 40.9027%
2 | O=C(Nc1nc2cccc(-c3ccc(CN4CCS(=O)(=O)CC4)cc3)n2n1)C1CC1 [FILGOTINIB] | 112.545% | 86.0918% | 106.088% | 87.0807% | 100.525% | 92.8016% | 121.161% | 92.1067% | 124.013% | 111.823% | 119.446% | 102.655%
3 | O=c1nc(-c2ccccn2)sc2ccccc12 [BTZO-1] | 113.092% | 104.485% | 93.617% | 87.2617% | 150.72% | 152.299% | 108.701% | 93.9423% | 72.8422% | 97.4125% | 100.899% | 88.8475%
4 | CCC(=N\O)/C(C)=C/c1ccc(F)c(C)c1 [A-226] | 93.31% | 115.263% | 126.956% | 103.634% | 127.798% | 151.161% | 120.98% | 100.434% | 99.1206% | 103.384% | 109.979% | 105.569%
5 | COc1ccc(Cn2ccc3ccc(C(=O)NO)cc32)cc1 | 176.611% | 111.53% | 111.23% | 102.771% | 111.578% | 129.424% | 126.919% | 118.855% | 71.3405% | 118.85% | 119.497% | 102.466%
6 | Cn1c(=O)[nH]c2cc(N3C(=O)c4cccc5c(CCCO)ccc(c45)C3=O)ccc21 | 125.633% | 89.8045% | 109.771% | 112.055% | 115.119% | 110.623% | 83.0583% | 109.161% | 89.1085% | 114.749% | 98.1543% | 99.5703%
7 | CNC(=N)NCCC[C@H](NC(=O)[C@H](CC(C)C)NC(=O)NNC(=O)[C@H](Cc1ccccc1)NC(=O)[C@H](CO)NC(=O)[C@H](CC(N)=O)NC(=O)[C@@H](Cc1cccnc1)NC(=O)[C@H](N)Cc1ccc(O)cc1)C(=O)NCC(N)=O [KISS1-543] (H-[dY][d3Pal]NSF[azaGly]L[Arg(Me)]G-NH2) | 101.104% | 120.489% | 73.3632% | 97.5472% | 103.647% | 101.302% | 85.2773% | 99.9886% | 118.116% | 72.7172% | 93.1075% | 78.975%
8 | Cc1nc(C2CCN(C(=O)c3ccc(OC(F)(F)F)cc3N)CC2)c2ncc(N3CCN(C)CC3)cc2n1 [BAY-693] | 93.857% | 129.276% | 111.777% | 88.9169% | 114.208% | 166.908% | 75.386% | 110.093% | 86.7565% | 92.2226% | 129.525% | 92.5719%
9 | CN(C)CC#Cc1ccc(OCCCc2sc(N3CCc4cccc(C(=O)Nc5nc6ccccc6s5)c4C3)nc2C(=O)O)c(F)c1 [A-1155463] | 1.175% | 177.943% | 3.867% | 58.9374% | 0.3385% | 128.541% | 0.4136% | 37.2528% | 48.5807% | 127.556% | 26.2999% | 75.159%
10 | CC(C)Oc1ccc(-c2c[nH]cc2CN(C)CCO)cc1 | 114.035% | 121.653% | 114.538% | 100.305% | 112.392% | 114.959% | 84.6605% | 116.102% | 119.367% | 107.888% | 90.5544% | 99.1586%
11 | CNc1cc(Oc2cc(C(=O)Nc3cc(N4CCN(C)CC4)cc(C(F)(F)F)c3)ccc2C)ncn1 | 162.082% | 75.5289% | 115.09% | 103.127% | 72.9479% | 75.3319% | 138.287% | 104.785% | 139.066% | 110.099% | 182.817% | 99.4408%
12 | COc1ccc(Oc2cc(NCCC(F)(F)F)c3ncc(-c4ccc(C(=O)NC5CC5)c(C)c4)n3n2)c(F)c1F [BAY-1217389] | 10.1003% | 184.891% | 6.085% | 72.716% | 5.893% | 100.303% | 6.114% | 52.2962% | 15.963% | 131.783% | 28.3238% | 88.2574%
13 | Cc1ccc(-c2ccc3c(ccc4sc5c(c43)NC[C@@H](C)NC5=O)n2)cn1 | 152.499% | 70.7863% | 154.638% | 67.5844% | 100.355% | 85.371% | 114.604% | 88.0896% | 126.339% | 65.0441% | 182.208% | 70.7861%
14 | CC#CC(=O)N1CCC[C@H]1c1nc(-c2ccc(C(=O)Nc3ccccn3)cc2)c2c(N)nccn12 [ACALABRUTINIB] | 96.1769% | 99.9657% | 56.8336% | 71.1135% | 96.562% | 83.4698% | 98.0139% | 99.6421% | 70.2708% | 100.717% | 59.6403% | 100.701%
